The values that follow come from PubChem BioAssay (NCI).

Common to all, as to experiment: NCI anticancer screen, dose series, 48 h
Test [1] concerns A498 renal.
In test [2] the test system is MCF7 breast.
In test [3] the test system is M14 melanoma.
Test [4] concerns HT29 colon.
Test [5] relates to UACC-257 melanoma.
The test system of test [6] is HL-60(TB) leukemia.
Test [7] has as its system RPMI-8226 leukemia.
Test [8] concerns SK-MEL-2 melanoma.
For test [9], the system named is COLO 205 colon.
In test [10] the test system is NCI-H522 lung.
The test system of test [11] is CCRF-CEM leukemia.
In test [12] the test system is SN12C renal.
For test [13], the system named is DU-145 prostate.
In test [14] the test system is SK-MEL-5 melanoma.
Test [15] relates to MDA-MB-231 breast.
Test [16] deals with LOX IMVI melanoma.
Test [17] has as its system EKVX NSCLC.
Test [18] has as its system SNB-75 CNS.
Test [19] has as its system OVCAR-4 ovarian.
In test [20] the test system is ACHN renal.

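Tested at 5 concentrations; 48 h exposure; 96-well plates; endpoints linearly interpolated, else capped at highest concentration. TGI marks complete inhibition of growth.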

As for `Nc1n[nH]c2c(C(=O)Nc3ccc(Cl)cc3)c(N)n(N)c(=O)c12`, the TGI in test [1], in test [2], in test [3], in test [4], in test [5] and in test [6] was > 100 µM in each case. In addition, the TGI in [7], in test [8], in test [9], in test [10], in [11] and in [12] was > 100 µM in each case. In addition, the TGI in [13], in [14], in test [15], in [16], in test [17] and in test [18] was > 100 µM throughout. Also, the TGI in test [19] was > 100 µM.

On to `CCOC(=O)c1c(N2CCOCC2)ncn(-c2cccc(Cl)c2)c1=O`, for which the TGI in test [1], in test [2], in [3], in test [4], in test [5] and in test [6] was > 100 µM throughout. Moreover, the TGI in [7], in [8], in test [9], in test [10], in test [11] and in test [12] was > 100 µM in each case. Moreover, the TGI in test [13], in test [20], in test [15], in test [16], in test [17] and in test [18] was > 100 µM in each case. In addition, the TGI in [19] was > 100 µM.

For the compound `O=c1oc2ccccc2c(O)c1C(c1cccc(C(c2c(O)c3ccccc3oc2=O)c2c(O)c3ccccc3oc2=O)c1)c1c(O)c2ccccc2oc1=O`, the TGI in test [1] was > 100 µM; in test [2], 61.3 µM; in test [3], > 100 µM; in [4], > 100 µM; in [5] it was > 100 µM; in [6], 45.8 µM. Moreover, the TGI is 76.6 µM in [7]; > 100 µM in test [8]; > 100 µM in test [9]; 35.6 µM in [10]; 69.3 µM in [11]; 83 µM in [12]. The TGI in test [13] was > 100 µM; in test [14], 95.7 µM; in test [20], > 100 µM; in test [15], 99.3 µM; in test [16], 60.2 µM; in test [17], > 100 µM. The TGI in test [18] amounted to 41.6 µM.

As to `O=[N+]([O-])c1cccc(-c2cn3c(n2)Cc2ccccc2C3)c1`, the TGI in [1], in [2], in test [3], in test [4], in test [5] and in test [6] was > 100 µM throughout. Further, the TGI in test [8], in [9], in test [10], in [11], in test [12] and in test [13] was > 100 µM each time. Further, the TGI is > 100 µM in [14]; > 100 µM in test [20]; 67.6 µM in test [15]; > 100 µM in test [16]; > 100 µM in test [17]; > 100 µM in [18]. For the same compound, in [19], the TGI was > 100 µM.

Turning to `COc1c2cc([N+](=O)[O-])cc1CN(C(=O)C(F)(F)F)CCOCCN(C(=O)C(F)(F)F)C2`, the TGI in test [1], in test [2], in test [3], in test [4], in [5] and in [6] was > 100 µM throughout. Besides, the TGI in test [8], in [9], in [10], in [11], in [12] and in test [13] was > 100 µM each time. Further, the TGI in test [14], in test [20], in test [15], in test [16], in test [17] and in test [18] was > 100 µM throughout. The TGI in [19] was > 100 µM.

On to `CO[C@@H]1C[C@H]2[C@@H]3CC[C@H]([C@H](C)COC(C)=O)[C@@]3(C)CC[C@@H]2[C@@]2(C)CC[C@H]3C[C@]312`, for which the TGI in test [1], in test [2], in test [3], in test [4], in test [5] and in test [6] was > 100 µM throughout. Also, the TGI in test [7], in [9], in test [10], in test [11], in test [12] and in [13] was > 100 µM each time. Further, the TGI in test [14], in test [20], in test [15], in test [16], in test [17] and in [18] was > 100 µM each time. In addition, the TGI in [19] was > 100 µM.

On to `C[C@H](CCC(=O)NCCS(=O)(=O)O)[C@H]1CC[C@H]2[C@@H]3[C@H](O)C[C@@H]4C[C@H](O)CC[C@]4(C)[C@H]3CC[C@]12C`, for which the TGI in test [1], in test [2], in test [3], in test [4], in test [5] and in [6] was > 100 µM each time. In addition, the TGI in test [7], in test [8], in test [9], in test [10], in test [11] and in [12] was > 100 µM throughout. In addition, the TGI in test [13], in test [14], in [20], in [15], in [16] and in test [17] was > 100 µM in each case. Moreover, the TGI in test [19] was > 100 µM.

For the compound `O=c1[nH]c2ccc(Cl)cc2o1`, the TGI in [1], in test [2], in [3], in test [4], in test [5] and in [6] was > 100 µM in each case. Moreover, the TGI in [7], in test [9], in test [10], in test [11], in test [12] and in test [13] was > 100 µM throughout. In addition, the TGI in test [14], in test [20], in [15], in [16], in test [17] and in test [18] was > 100 µM in each case. Besides, in [19], the TGI was > 100 µM.

With `C[C@@H](NC(=O)Cn1c(Cl)nc2ccccc21)c1ccccc1`, the TGI in test [1], in test [2], in [3], in [4], in test [5] and in [6] was > 100 µM each time. Also, the TGI in [7], in [8], in [9], in test [10], in test [11] and in test [13] was > 100 µM in each case. For the same compound, the TGI in [14], in test [20], in [15], in test [16], in test [17] and in test [18] was > 100 µM each time. Also, in test [19], the TGI was > 100 µM.

Consider `CSc1ncc2c(C#N)c3[nH]c4ccccc4n3c(=O)c2n1`, for which the TGI in test [1] was 52.7 µM; in [2], > 100 µM; in [3], > 100 µM; in [5], > 100 µM; in test [6] it was 25.1 µM; in test [7], 12.3 µM. The TGI in test [8] is 33 µM; in test [9], 35.1 µM; in test [10], > 100 µM; in test [11], 27.8 µM; in test [12] it was > 100 µM; in [13] it was > 100 µM. Moreover, the TGI in test [14] is 25.2 µM; in test [20] it was > 100 µM; in test [15], > 100 µM; in [16], > 100 µM; in test [17], > 100 µM; in [18], > 100 µM. Also, the TGI in test [19] was > 100 µM.

For the compound `C1=Nc2ccc(cc2)-c2ccc(cc2)N=Cc2ccc(cc2)OCc2cccc(n2)COc2ccc1cc2`, the TGI in [1], in test [2], in [3], in test [4], in test [5] and in test [6] was > 100 µM in each case. For the same compound, the TGI in test [7], in [8], in test [9], in test [10], in test [11] and in [12] was > 100 µM in each case. Further, the TGI in test [13], in [14], in [20], in test [15], in [17] and in [18] was > 100 µM in each case. Moreover, the TGI in [19] was > 100 µM.

Turning to `C[C@H](c1ccccc1)n1c(N)c(-c2nc3ccccc3s2)c2ccc([N+](=O)[O-])cc2c1=O`, the TGI is 75.2 µM in [1]; 52.2 µM in test [2]; > 100 µM in test [3]; > 52.7 µM in test [4]; 76.9 µM in [5]; 36.6 µM in test [6]. The TGI in [7] was 1.87 µM; in [8], > 28.7 µM; in test [9], 36.4 µM; in test [10] it was > 19.7 µM; in test [12] it was > 100 µM; in test [13] it was > 38.8 µM. For the same compound, the TGI in test [14] is 19.8 µM; in test [20] it was 65.7 µM; in [15] it was 27.7 µM; in [16], > 66.6 µM; in test [17], > 100 µM; in [18] it was > 91.7 µM. In test [19], the TGI is > 100 µM.

For `C=CCSC1=N/C(=C\c2ccc(OC)cc2)C(=O)N1CC=C`, the TGI in test [1] is 66.6 µM; in [2] it was > 100 µM; in test [3] it was > 100 µM; in test [4], > 100 µM; in [5] it was 58.4 µM; in test [6] it was 34.8 µM. Besides, the TGI in test [7] is 42 µM; in [8], 91.5 µM; in test [9], 40.2 µM; in [10], > 100 µM; in test [11], 78 µM; in test [12], 62.2 µM. Moreover, the TGI was > 100 µM in [13]; 29 µM in test [14]; > 100 µM in test [20]; > 100 µM in test [15]; > 100 µM in test [16]; 59.2 µM in test [17]. The TGI in test [19] was > 100 µM.

Consider `C=CCc1oc(C)nc1CCCC`, for which the TGI in test [1], in test [2], in test [3], in test [4], in test [5] and in test [6] was > 100 µM each time. Also, the TGI in test [9], in test [10], in test [11], in test [12], in test [13] and in [14] was > 100 µM throughout. For the same compound, the TGI in test [20], in test [15], in [16], in [17], in test [18] and in test [19] was > 100 µM in each case.
